In patent publication US9266878B2, “Phosphatidylinositol 3-kinase inhibitors” (Gilead Calistoga LLC, priority 2012, dated 2016):

Columns and labels:
Test in all cases: Enzymatic activity of PI3K isoforms, TR-FRET assay (PIP3 formation)
Assay type in all cases: biochemical
PI3Kα = PI3Kα (Homo sapiens (Human), UniProt P42336); details: bound given in uM
Experimental: (§1) Enzymatic activity of the class I PI3K isoforms was measured using a time-resolved fluorescence resonance energy transfer (TR-FRET) assay that monitors formation of the product 3,4,5-inositol triphosphate molecule (PIP3), as it competes with fluorescently labeled PIP3 for binding to the GRP-1 pleckstrin homology domain protein. An increase in […] product results in a decrease in TR-FRET signal as the labeled fluorophore is displaced from the GRP-1 protein binding site.
(§2) Class I PI3K isoforms were expressed and purified as heterodimeric recombinant proteins. All assay reagents and buffers for the TR-FRET assay were purchased from Millipore. […] After an assay reaction time of 30 minutes at 25° C., reactions were terminated with a final concentration of 10 mM EDTA, 10 nM labeled-PIP3, and 35 nM Europium labeled GRP-1 detector protein before reading TR-FRET on an Envision plate reader (Ex: 340 nm; Em: 615/665 nm; 100 μs delay and 500 μs read window).
(§3) IC50 are reported in units of nM. These assays generally produced results within 3-fold of the reported mean.

PI3Kδ = PI3Kδ (Homo sapiens (Human), UniProt O00329); details: bound given in nM
Sequence of PI3Kδ (O00329 whole entry): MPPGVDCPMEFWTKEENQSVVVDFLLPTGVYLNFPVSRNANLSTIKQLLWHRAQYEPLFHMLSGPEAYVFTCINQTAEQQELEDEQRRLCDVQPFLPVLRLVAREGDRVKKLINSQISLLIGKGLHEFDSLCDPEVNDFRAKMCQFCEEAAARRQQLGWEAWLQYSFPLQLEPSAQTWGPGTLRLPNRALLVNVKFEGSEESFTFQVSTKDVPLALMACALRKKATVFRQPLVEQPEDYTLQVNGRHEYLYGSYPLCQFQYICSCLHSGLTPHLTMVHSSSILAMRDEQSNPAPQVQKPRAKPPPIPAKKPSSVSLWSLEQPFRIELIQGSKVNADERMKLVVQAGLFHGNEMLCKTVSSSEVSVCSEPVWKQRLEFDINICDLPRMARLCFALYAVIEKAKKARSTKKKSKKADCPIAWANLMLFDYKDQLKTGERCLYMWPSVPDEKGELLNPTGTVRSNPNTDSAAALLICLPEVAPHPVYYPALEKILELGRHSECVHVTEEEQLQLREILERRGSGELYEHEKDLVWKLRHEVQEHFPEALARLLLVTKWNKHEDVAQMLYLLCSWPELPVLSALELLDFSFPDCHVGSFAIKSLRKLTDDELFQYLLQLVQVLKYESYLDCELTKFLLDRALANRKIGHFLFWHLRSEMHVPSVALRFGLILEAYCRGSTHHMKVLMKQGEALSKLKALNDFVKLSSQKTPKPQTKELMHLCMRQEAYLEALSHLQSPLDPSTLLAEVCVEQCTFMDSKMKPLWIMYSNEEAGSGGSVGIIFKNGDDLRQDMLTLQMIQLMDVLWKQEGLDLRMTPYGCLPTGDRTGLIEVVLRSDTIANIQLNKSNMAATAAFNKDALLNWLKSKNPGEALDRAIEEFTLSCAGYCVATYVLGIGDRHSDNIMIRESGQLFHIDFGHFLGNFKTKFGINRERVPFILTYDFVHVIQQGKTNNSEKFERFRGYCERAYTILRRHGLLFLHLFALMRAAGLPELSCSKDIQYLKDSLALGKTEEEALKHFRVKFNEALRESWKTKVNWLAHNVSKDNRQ
Sequence of PI3Kδ (P27986 whole entry partner): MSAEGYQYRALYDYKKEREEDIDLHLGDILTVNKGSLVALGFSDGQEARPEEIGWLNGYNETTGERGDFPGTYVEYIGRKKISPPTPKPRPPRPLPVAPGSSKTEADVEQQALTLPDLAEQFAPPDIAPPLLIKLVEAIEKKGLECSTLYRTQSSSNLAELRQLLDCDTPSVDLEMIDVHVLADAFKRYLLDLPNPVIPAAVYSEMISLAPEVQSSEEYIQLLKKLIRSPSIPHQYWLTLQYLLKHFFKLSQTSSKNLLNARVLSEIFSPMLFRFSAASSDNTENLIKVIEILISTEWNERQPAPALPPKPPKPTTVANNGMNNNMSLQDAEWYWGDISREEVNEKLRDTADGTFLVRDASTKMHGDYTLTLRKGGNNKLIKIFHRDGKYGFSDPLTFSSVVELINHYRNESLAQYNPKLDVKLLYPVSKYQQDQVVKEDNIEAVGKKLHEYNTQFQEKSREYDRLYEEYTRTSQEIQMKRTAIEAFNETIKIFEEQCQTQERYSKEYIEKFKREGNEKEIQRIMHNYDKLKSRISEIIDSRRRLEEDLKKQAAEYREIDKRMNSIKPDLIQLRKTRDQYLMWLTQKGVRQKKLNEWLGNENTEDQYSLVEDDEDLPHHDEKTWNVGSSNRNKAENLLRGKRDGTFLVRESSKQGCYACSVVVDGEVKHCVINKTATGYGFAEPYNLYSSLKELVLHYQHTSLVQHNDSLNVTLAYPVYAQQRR
Experimental: as §1, §2, §3

PI3Kγ = PI3Kγ (Homo sapiens (Human), UniProt P48736)
Sequence of PI3Kγ (P48736 whole entry): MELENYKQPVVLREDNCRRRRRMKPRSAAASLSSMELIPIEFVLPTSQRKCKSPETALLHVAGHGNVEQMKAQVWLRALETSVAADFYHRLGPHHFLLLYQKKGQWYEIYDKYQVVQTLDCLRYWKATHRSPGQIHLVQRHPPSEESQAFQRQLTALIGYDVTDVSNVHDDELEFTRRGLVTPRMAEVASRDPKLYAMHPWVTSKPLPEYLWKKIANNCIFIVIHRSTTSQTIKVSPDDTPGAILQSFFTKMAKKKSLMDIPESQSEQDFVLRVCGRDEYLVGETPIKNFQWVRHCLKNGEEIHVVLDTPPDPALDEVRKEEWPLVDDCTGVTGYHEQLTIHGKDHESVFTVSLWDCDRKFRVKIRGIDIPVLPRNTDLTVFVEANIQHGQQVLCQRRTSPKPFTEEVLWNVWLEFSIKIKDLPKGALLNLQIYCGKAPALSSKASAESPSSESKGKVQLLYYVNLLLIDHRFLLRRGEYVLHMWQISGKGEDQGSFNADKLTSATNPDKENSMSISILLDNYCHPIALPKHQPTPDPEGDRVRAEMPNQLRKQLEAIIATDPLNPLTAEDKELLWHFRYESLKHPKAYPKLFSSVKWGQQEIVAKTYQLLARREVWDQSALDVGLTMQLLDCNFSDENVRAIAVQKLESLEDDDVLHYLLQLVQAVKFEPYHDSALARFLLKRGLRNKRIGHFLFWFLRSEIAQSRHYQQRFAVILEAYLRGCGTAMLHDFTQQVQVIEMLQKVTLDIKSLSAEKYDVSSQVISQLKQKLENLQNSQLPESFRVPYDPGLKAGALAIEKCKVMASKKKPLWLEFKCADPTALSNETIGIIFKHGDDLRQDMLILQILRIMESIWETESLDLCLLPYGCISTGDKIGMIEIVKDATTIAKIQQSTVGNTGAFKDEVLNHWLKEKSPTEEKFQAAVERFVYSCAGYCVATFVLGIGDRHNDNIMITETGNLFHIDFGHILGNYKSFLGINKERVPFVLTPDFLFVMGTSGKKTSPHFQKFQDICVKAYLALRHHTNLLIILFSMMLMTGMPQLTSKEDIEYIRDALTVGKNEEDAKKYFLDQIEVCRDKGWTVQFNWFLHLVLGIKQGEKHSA
Sequence of PI3Kγ (Q8WYR1 whole entry partner): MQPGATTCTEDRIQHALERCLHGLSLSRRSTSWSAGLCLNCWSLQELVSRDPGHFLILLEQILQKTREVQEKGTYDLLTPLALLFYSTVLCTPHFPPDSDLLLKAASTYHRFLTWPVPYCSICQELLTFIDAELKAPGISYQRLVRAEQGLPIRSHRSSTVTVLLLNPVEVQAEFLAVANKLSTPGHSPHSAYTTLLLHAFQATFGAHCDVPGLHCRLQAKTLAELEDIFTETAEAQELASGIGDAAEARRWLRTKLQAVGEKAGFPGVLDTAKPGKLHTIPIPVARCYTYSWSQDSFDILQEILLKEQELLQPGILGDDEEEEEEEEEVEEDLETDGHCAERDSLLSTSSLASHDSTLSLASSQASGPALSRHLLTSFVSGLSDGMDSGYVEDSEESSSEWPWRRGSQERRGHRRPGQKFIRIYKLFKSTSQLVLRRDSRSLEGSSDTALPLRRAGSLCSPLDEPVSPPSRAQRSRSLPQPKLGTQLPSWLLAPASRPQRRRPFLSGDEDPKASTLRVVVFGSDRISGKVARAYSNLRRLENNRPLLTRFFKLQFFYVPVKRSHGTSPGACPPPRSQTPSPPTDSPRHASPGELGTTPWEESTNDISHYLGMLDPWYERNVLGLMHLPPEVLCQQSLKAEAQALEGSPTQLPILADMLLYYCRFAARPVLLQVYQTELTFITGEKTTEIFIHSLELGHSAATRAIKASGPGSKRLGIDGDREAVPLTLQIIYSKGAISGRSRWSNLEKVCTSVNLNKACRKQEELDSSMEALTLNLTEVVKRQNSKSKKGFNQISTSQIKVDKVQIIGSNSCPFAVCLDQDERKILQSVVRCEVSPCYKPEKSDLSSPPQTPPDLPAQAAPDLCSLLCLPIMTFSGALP
Experimental: as §1
Class I PI3K isoforms were expressed and purified as heterodimeric recombinant proteins. All assay reagents and buffers for the TR-FRET assay were purchased from Millipore.
IC50 are reported in units of nM.

Sequence of PI3Kα (P42336 whole entry, the tested form may be a part, canonical isoform): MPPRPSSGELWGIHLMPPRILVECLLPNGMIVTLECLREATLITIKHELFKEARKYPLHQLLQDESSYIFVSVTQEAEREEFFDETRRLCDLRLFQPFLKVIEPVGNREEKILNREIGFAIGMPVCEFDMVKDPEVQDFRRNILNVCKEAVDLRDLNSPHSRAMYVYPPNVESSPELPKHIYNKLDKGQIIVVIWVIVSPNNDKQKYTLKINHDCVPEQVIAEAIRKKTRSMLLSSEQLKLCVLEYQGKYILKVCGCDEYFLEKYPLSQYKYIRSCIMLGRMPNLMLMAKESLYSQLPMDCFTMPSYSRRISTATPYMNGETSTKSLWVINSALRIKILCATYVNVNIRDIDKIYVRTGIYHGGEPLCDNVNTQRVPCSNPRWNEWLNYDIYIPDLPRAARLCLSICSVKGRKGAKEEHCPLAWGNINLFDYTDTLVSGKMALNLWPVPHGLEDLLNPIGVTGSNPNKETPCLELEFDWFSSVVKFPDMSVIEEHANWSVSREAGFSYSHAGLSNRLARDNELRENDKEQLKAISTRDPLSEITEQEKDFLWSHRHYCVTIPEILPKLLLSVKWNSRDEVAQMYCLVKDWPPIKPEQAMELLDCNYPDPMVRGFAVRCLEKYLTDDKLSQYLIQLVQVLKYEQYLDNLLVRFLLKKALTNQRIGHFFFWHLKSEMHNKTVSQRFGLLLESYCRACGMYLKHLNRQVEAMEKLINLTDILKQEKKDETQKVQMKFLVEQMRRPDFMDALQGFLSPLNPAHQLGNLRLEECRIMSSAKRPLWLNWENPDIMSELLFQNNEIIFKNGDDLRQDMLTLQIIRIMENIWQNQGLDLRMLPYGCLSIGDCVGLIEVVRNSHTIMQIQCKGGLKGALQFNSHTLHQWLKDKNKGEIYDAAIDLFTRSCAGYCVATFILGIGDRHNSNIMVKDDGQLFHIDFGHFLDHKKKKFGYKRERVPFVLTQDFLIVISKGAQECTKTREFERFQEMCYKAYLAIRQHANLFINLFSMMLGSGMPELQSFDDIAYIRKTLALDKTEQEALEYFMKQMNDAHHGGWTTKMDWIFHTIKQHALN
Sequence of PI3Kα (P27986 whole entry partner, the tested form may be a part, canonical isoform): as the sequence (P27986 whole entry partner) above

| IC50 (PI3Kα) | IC50 (PI3Kδ) | IC50 (PI3Kγ; bound given in nM) | IC50 (PI3Kγ; bound given in uM) | Compound |
| --- | --- | --- | --- | --- |
| > 1 µM | < 100 nM |  |  | Cc1cccc2nc([C@H](C)Nc3ncnc(N)c3C#Cc3ncccn3)n(-c3ccccc3)c(=O)c12 [Compound 104a, (S)-2-(1-((6-amino-5-(pyrimidin-2-ylethynyl)pyrimidin-4-yl)amino)ethyl)-5-methyl-3-phenylquinazolin-4(3H)-one] |
|  | < 100 nM | < 100 nM |  | C[C@H](Nc1ncnc(N)c1C#Cc1cccnc1)c1nc2cccc(Cl)c2c(=O)n1-c1ccccc1 [Compound 44a, (S)-2-(1-(6-amino-5-(pyridin-3-ylethynyl)pyrimidin-4-ylamino)ethyl)-5-chloro-3-phenylquinazolin-4(3H)-one] |
| > 1 µM | < 100 nM |  |  | C[C@H](Nc1ncnc(N)c1C#Cc1ccc(F)cn1)c1nc2c(F)ccc(Cl)c2c(=O)n1-c1ccccc1 [Compound 6a, (S)-2-(1-(6-amino-5-((5-fluoropyridin-2-yl)ethynyl)pyrimidin-4-ylamino)ethyl)-5-chloro-8-fluoro-3-phenylquinazolin-4(3H)-one] |
| > 1 µM | < 100 nM |  |  | C[C@H](Nc1ncnc(N)c1C#Cc1ncccn1)c1nc2cccc(Cl)c2c(=O)n1-c1ccccc1 [Compound 102a, (S)-2-(1-((6-amino-5-(pyrimidin-2-ylethynyl)pyrimidin-4-yl)amino)ethyl)-5-chloro-3-phenylquinazolin-4(3H)-one] |
| > 1 µM | < 100 nM |  |  | C[C@H](Nc1ncnc(N)c1C#Cc1cnccn1)c1nc2cccc(C(F)F)c2c(=O)n1-c1ccccc1 [Compound 76a, (S)-2-(1-((6-amino-5-(pyrazin-2-ylethynyl)pyrimidin-4-yl)amino)ethyl)-5-(difluoromethyl)-3-phenylquinazolin-4(3H)-one] |
| > 1 µM | < 100 nM |  |  | C[C@H](Nc1ncnc(N)c1C#Cc1ccc(N)cn1)c1nc2cccc(Cl)c2c(=O)n1-c1cc(F)cc(F)c1 [Compound 34a, (S)-2-(1-(6-amino-5-((5-aminopyridin-2-yl)ethynyl)pyrimidin-4-ylamino)ethyl)-5-chloro-3-(3,5-difluorophenyl)quinazolin-4(3H)-one] |
| > 1 µM | < 100 nM |  |  | C[C@H](Nc1ncnc(N)c1C#Cc1cccc(C(F)(F)F)n1)c1nc2cccc(Cl)c2c(=O)n1-c1ccccc1 [Compound 151a, (S)-2-(1-((6-amino-5-((6-(trifluoromethyl)pyridin-2-yl)ethynyl)pyrimidin-4-yl)amino)ethyl)-5-chloro-3-phenylquinazolin-4(3H)-one] |
| > 1 µM | < 100 nM |  |  | C[C@H](Nc1ncnc(N)c1C#Cc1cc(C(F)(F)F)ccn1)c1nc2cccc(Cl)c2c(=O)n1-c1ccccc1 [Compound 148a, (S)-2-(1-((6-amino-5-((4-(trifluoromethyl)pyridin-2-yl)ethynyl)pyrimidin-4-yl)amino)ethyl)-5-chloro-3-phenylquinazolin-4(3H)-one] |
| > 1 µM | < 100 nM |  |  | C[C@H](Nc1ncnc(N)c1C#Cc1cnccn1)c1nc2cccc(Cl)c2c(=O)n1-c1cccc(Cl)c1 [Compound 89a, (S)-2-(1-((6-amino-5-(pyrazin-2-ylethynyl)pyrimidin-4-yl)amino)ethyl)-5-chloro-3-(3-chlorophenyl)quinazolin-4(3H)-one] |
| > 1 µM | < 100 nM |  |  | C[C@H](Nc1ncnc(N)c1C#Cc1ccc(F)cn1)c1nc2cccc(Cl)c2c(=O)n1-c1ccccc1 [Compound 48a, (S)-2-(1-(6-amino-5-((5-fluoropyridin-2-yl)ethynyl)pyrimidin-4-ylamino)ethyl)-5-chloro-3-phenylquinazolin-4(3H)-one] |
|  | < 100 nM |  |  | CCNS(=O)(=O)c1cccc(-n2c([C@H](C)Nc3ncnc(N)c3C#Cc3ccccn3)nc3cccc(Cl)c3c2=O)c1 [Compound 39a, (S)-3-(2-(1-(6-amino-5-(pyridin-2-ylethynyl)pyrimidin-4-ylamino)ethyl)-5-chloro-4-oxoquinazolin-3(4H)-yl)-N-ethylbenzenesulfonamide] |
| > 1 µM | < 100 nM |  |  | C[C@H](Nc1ncnc(N)c1C#Cc1ccccc1)c1nc2cccc(F)c2c(=O)n1-c1cccc(F)c1 [Compound 111a, (S)-2-(1-((6-amino-5-(phenylethynyl)pyrimidin-4-yl)amino)ethyl)-5-fluoro-3-(3-fluorophenyl)quinazolin-4(3H)-one] |
|  | < 100 nM | < 100 nM |  | C[C@H](Nc1nc(N)nc(N)c1C#Cc1ccccc1)c1nc2cccc(Cl)c2c(=O)n1-c1ccccc1 [Compound 25a, 5-chloro-2-(1-((2,6-diamino-5-(phenylethynyl)pyrimidin-4-yl)amino)ethyl)-3-phenylquinazolin-4(3H)-one] |
| > 1 µM | < 100 nM |  |  | C[C@H](Nc1ncnc(N)c1C#Cc1cnccn1)c1nc2cccc(Cl)c2c(=O)n1-c1cccc(CNS(C)(=O)=O)c1 [Compound 123a, (S)—N-(3-(2-(1-((6-amino-5-(pyrazin-2-ylethynyl)pyrimidin-4-yl)amino)ethyl)-5-chloro-4-oxoquinazolin-3(4H)-yl)benzyl)methanesulfonamide] |
| > 1 µM | < 100 nM |  |  | COc1cc(F)cc(C#Cc2c(N)ncnc2N[C@@H](C)c2nc3cccc(Cl)c3c(=O)n2-c2ccccc2)c1 [Compound 47a, (S)-2-(1-(6-amino-5-((3-fluoro-5-methoxyphenyl)ethynyl)pyrimidin-4-ylamino)ethyl)-5-chloro-3-phenylquinazolin-4(3H)-one] |
|  | < 100 nM | < 100 nM |  | C[C@H](Nc1ncnc(N)c1C#Cc1cnc(N)cc1C(F)(F)F)c1nc2cccc(Cl)c2c(=O)n1-c1cc(F)cc(F)c1 [Compound 17a, (S)-2-(1-(6-amino-5-((6-amino-4-(trifluoromethyl)pyridin-3-yl)ethynyl)pyrimidin-4-ylamino)ethyl)-5-chloro-3-(3,5-difluorophenyl)quinazolin-4(3H)-one] |
|  | < 100 nM |  |  | C[C@H](Nc1ncnc(N)c1C#Cc1ccccn1)c1nc2cccc(Cl)c2c(=O)n1-c1cccc(S(N)(=O)=O)c1 [Compound 40a, (S)-3-(2-(1-(6-amino-5-(pyridin-2-ylethynyl)pyrimidin-4-ylamino)ethyl)-5-chloro-4-oxoquinazolin-3(4H)-yl)benzenesulfonamide] |
| > 1 µM | < 100 nM |  |  | CC(=O)c1cccc(C#Cc2c(N)ncnc2N[C@@H](C)c2nc3cccc(Cl)c3c(=O)n2-c2ccccc2)n1 [Compound 153a, (S)-2-(1-((5-((6-acetylpyridin-2-yl)ethynyl)-6-aminopyrimidin-4-yl)amino)ethyl)-5-chloro-3-phenylquinazolin-4(3H)-one] |
| > 1 µM | < 100 nM |  |  | Nc1ncnc(N2CCC[C@H]2c2nc3cccc(Cl)c3c(=O)n2-c2ccccc2)c1C#Cc1ccccn1 [Compound 37a, (S)-2-(1-(6-amino-5-(pyridin-2-ylethynyl)pyrimidin-4-yl)pyrrolidin-2-yl)-5-chloro-3-phenylquinazolin-4(3H)-one] |
|  | < 100 nM |  |  | C[C@H](Nc1ncnc(N)c1C#Cc1cnc(N)nc1)c1nc2cccc(Cl)c2c(=O)n1-c1cc(F)cc(F)c1 [Compound 32a, (S)-2-(1-(6-amino-5-((2-aminopyrimidin-5-yl)ethynyl)pyrimidin-4-ylamino)ethyl)-5-chloro-3-(3,5-difluorophenyl)quinazolin-4(3H)-one] |
| > 1 µM | < 100 nM |  |  | COc1ccc(C#Cc2c(N)ncnc2N[C@@H](C)c2nc3c(F)cccc3c(=O)n2-c2ccccc2)nc1 [Compound 12a, (S)-2-(1-(6-amino-5-((5-methoxypyridin-2-yl)ethynyl)pyrimidin-4-ylamino)ethyl)-8-fluoro-3-phenylquinazolin-4(3H)-one] |
|  | < 100 nM |  | > 1000 nM | C[C@H](Nc1ncnc(N)c1C#Cc1ccccc1)c1nc2cccc(F)c2c(=O)n1-c1cccnc1 [Compound 116a, (S)-2-(1-((6-amino-5-(phenylethynyl)pyrimidin-4-yl)amino)ethyl)-5-fluoro-3-(pyridin-3-yl)quinazolin-4(3H)-one] |
| > 1 µM | < 100 nM |  |  | C[C@H](Nc1ncnc(N)c1C#Cc1ccccc1)c1nc2cccc(C#N)c2c(=O)n1-c1ccccc1 [Compound 114a, (S)-2-(1-((6-amino-5-(phenylethynyl)pyrimidin-4-yl)amino)ethyl)-4-oxo-3-phenyl-3,4-dihydroquinazoline-5-carbonitrile] |
| > 1 µM | < 100 nM |  |  | Cc1ccc(F)c2nc([C@H](C)Nc3ncnc(N)c3C#Cc3ccc(F)cn3)n(-c3ccccc3)c(=O)c12 [Compound 62a, (S)-2-(1-((6-amino-5-((5-fluoropyridin-2-yl)ethynyl)pyrimidin-4-yl)amino)ethyl)-8-fluoro-5-methyl-3-phenylquinazolin-4(3H)-one] |
| > 1 µM | < 100 nM |  |  | COc1ccc(C#Cc2c(N)ncnc2N[C@@H](C)c2nc3c(Cl)ccc(Cl)c3c(=O)n2-c2ccccc2)nc1 [Compound 10a, (S)-2-(1-(6-amino-5-((5-methoxypyridin-2-yl)ethynyl)pyrimidin-4-ylamino)ethyl)-5,8-dichloro-3-phenylquinazolin-4(3H)-one] |
| > 1 µM | < 100 nM |  |  | Cc1cccc2nc([C@H](C)Nc3ncnc(N)c3C#Cc3ccc(F)cn3)n(-c3ccccc3)c(=O)c12 [Compound 54a, (S)-2-(1-((6-amino-5-((5-fluoropyridin-2-yl)ethynyl)pyrimidin-4-yl)amino)ethyl)-5-methyl-3-phenylquinazolin-4(3H)-one] |
